Assay results reported in ChEMBL document CHEMBL1201862, “PubChem BioAssay data set” (2004).
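Where inhibition never reached the appropriate level, the endpoint shown equals the highest concentration tested. Otherwise, values were interpolated linearly from a five-concentration, 48-hour dose response in 96-well plates. Abbreviation: GI50, concentration required for 50% inhibition of growth.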 Active and inactive are the calls of the source. No stated cut-off is given here; in the data, active = GI50 up to about 1.1 µM and inactive = higher.

Assays:
Assay in all cases: growth of human tumour cells (NCI), 48 h
BT-549 = system: BT-549
TK-10 = system: TK-10
NCI-H522 = system: NCI-H522
HCT-116 = system: HCT-116
PC-3 = system: PC-3
T47D = system: T47D
DU-145 = system: DU-145
LOX IMVI = system: LOX IMVI
NCI-H460 = system: NCI-H460
786-0 = system: 786-0
HOP-92 = system: HOP-92
Hs-578T = system: Hs-578T
MDA-MB-435 = system: MDA-MB-435
MDA-N = system: MDA-N
U-251 = system: U-251
CCRF-CEM = system: CCRF-CEM
SNB-75 = system: SNB-75
SK-OV-3 = system: SK-OV-3
KM12 = system: KM12
SF-268 = system: SF-268
HCC 2998 = system: HCC 2998
MCF7 = system: MCF7
IGROV-1 = system: IGROV-1
NCI-H23 = system: NCI-H23
OVCAR-5 = system: OVCAR-5
HCT-15 = system: HCT-15
NCI-H226 = system: NCI-H226
HT-29 = system: HT-29
SK-MEL-28 = system: SK-MEL-28
A498 = system: A498
EKVX = system: EKVX
COLO 205 = system: COLO 205
RXF 393 = system: RXF 393
SW-620 = system: SW-620
CAKI-1 = system: CAKI-1
SK-MEL-2 = system: SK-MEL-2
UACC-257 = system: UACC-257
SF-539 = system: SF-539
RPMI-8226 = system: RPMI-8226
A549 = system: A549
SNB-19 = system: SNB-19
OVCAR-8 = system: OVCAR-8
K562 = system: K562
SF-295 = system: SF-295
HOP-62 = system: HOP-62
SK-MEL-5 = system: SK-MEL-5
UO-31 = system: UO-31
UACC-62 = system: UACC-62
Malme-3M = system: Malme-3M
ACHN = system: ACHN
OVCAR-3 = system: OVCAR-3
M14 = system: M14
MDA-MB-231 = system: MDA-MB-231
MOLT-4 = system: MOLT-4
SN12C = system: SN12C
OVCAR-4 = system: OVCAR-4
NCI/ADR-RES = system: NCI/ADR-RES
HL-60 = system: HL-60

Measured: GI50

C=C(C)C1CCC(C(=O)O)CC1 (configuration not stated)
> 100 µM: HCT-15
inactive: BT-549 > 100 µM | TK-10 > 100 µM | NCI-H522 > 100 µM | HCT-116 > 100 µM | PC-3 > 100 µM | T47D > 100 µM | DU-145 > 100 µM | LOX IMVI > 100 µM | NCI-H460 > 100 µM | 786-0 > 100 µM | HOP-92 > 100 µM | Hs-578T > 100 µM | MDA-MB-435 > 100 µM | MDA-N > 100 µM | U-251 > 100 µM | CCRF-CEM > 100 µM | SNB-75 > 100 µM | SK-OV-3 > 100 µM | KM12 > 100 µM | SF-268 > 100 µM | HCC 2998 > 100 µM | MCF7 > 100 µM | IGROV-1 > 100 µM | NCI-H23 > 100 µM | OVCAR-5 > 100 µM | NCI-H226 > 100 µM | HT-29 > 100 µM | SK-MEL-28 > 100 µM | A498 > 100 µM | EKVX > 100 µM | COLO 205 > 100 µM | RXF 393 > 100 µM | SW-620 > 100 µM | CAKI-1 > 100 µM | SK-MEL-2 > 100 µM | UACC-257 > 100 µM | SF-539 > 100 µM | RPMI-8226 > 100 µM | A549 > 100 µM | SNB-19 > 100 µM | OVCAR-8 > 100 µM | K562 > 100 µM | SF-295 > 100 µM | HOP-62 > 100 µM | SK-MEL-5 > 100 µM | UO-31 > 100 µM | UACC-62 > 100 µM | Malme-3M > 100 µM | ACHN > 100 µM | OVCAR-3 > 100 µM | M14 > 100 µM | MDA-MB-231 > 100 µM | MOLT-4 > 100 µM | SN12C > 100 µM

CCCCCCCCCCCCCCCCOCC(Cl)COP(=O)(O)OP(=O)(O)OCC1OC(n2cnc3c(N)ncnc32)C(O)C1O (configuration not stated)
> 100 µM: HCT-15
inactive: BT-549 > 100 µM | TK-10 > 100 µM | NCI-H522 > 100 µM | HCT-116 38.1 µM | PC-3 29.9 µM | T47D 84.5 µM | LOX IMVI 75.9 µM | NCI-H460 52.4 µM | 786-0 > 100 µM | HOP-92 70.8 µM | Hs-578T 32.4 µM | MDA-MB-435 54.7 µM | MDA-N 61.8 µM | U-251 > 100 µM | CCRF-CEM > 100 µM | SNB-75 31 µM | SK-OV-3 68.5 µM | KM12 86.9 µM | SF-268 > 100 µM | HCC 2998 > 100 µM | MCF7 > 100 µM | IGROV-1 > 100 µM | NCI-H23 > 100 µM | OVCAR-5 50.7 µM | NCI-H226 36.7 µM | HT-29 > 100 µM | SK-MEL-28 > 100 µM | A498 > 100 µM | EKVX > 100 µM | COLO 205 > 100 µM | RXF 393 > 100 µM | SW-620 > 100 µM | CAKI-1 > 100 µM | SK-MEL-2 > 100 µM | UACC-257 > 100 µM | SF-539 76 µM | RPMI-8226 > 100 µM | A549 > 100 µM | SNB-19 > 100 µM | OVCAR-8 > 100 µM | OVCAR-4 > 100 µM | K562 > 100 µM | SF-295 > 100 µM | NCI/ADR-RES > 100 µM | HL-60 > 100 µM | HOP-62 > 100 µM | SK-MEL-5 > 100 µM | UO-31 61 µM | UACC-62 > 100 µM | Malme-3M > 100 µM | ACHN > 100 µM | OVCAR-3 > 100 µM | M14 83.6 µM | MDA-MB-231 38.7 µM | MOLT-4 > 100 µM | SN12C > 100 µM
